Among the test systems are EKVX NSCLC; OVCAR-3 ovarian; SR leukemia; SF-539 CNS; MDA-N; HCT-15 colon; MCF7 breast; SNB-19 CNS; LOX IMVI melanoma; SK-MEL-5 melanoma.
Common to all, as to assay: NCI-60 cell line screen, 48 h

Values joined by “and” are separate entries in the source; they are usually repeats but may differ in a detail not shown here. Equal values may be shown once.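 Compound exposure: 48 hours, 5 concentrations, 96-well plates. At the GI50, growth is halved. TGI marks complete inhibition of growth.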

With `CC1(C)Cc2ccccc2C(C)(Cl)C(=O)N1` (centres undefined), the TGI in the experiment on EKVX NSCLC, in the experiment with OVCAR-3 ovarian, with SR leukemia, in the experiment with SF-539 CNS, with MDA-N and with HCT-15 colon was greater than 10 µM in each case. Further, the TGI in the experiment with MCF7 breast and in the experiment on SNB-19 CNS was greater than 10 µM each time.
As to `O=C1OC2(CCCCC2)C(Oc2ccc(Cl)cc2)=C1F`, the TGI in the experiment with EKVX NSCLC, in the experiment with OVCAR-3 ovarian, in the experiment on SR leukemia, with SF-539 CNS, with MDA-N and with LOX IMVI melanoma was greater than 100 µM throughout. Moreover, the TGI in the experiment with MCF7 breast is greater than 100 µM; in the experiment on SNB-19 CNS it was greater than 100 µM; in the experiment with SK-MEL-5 melanoma it was 33.3 µM.
With `C[C@H](NC(=O)C(C)(Cc1ccc(O)cn1)NC(=O)c1ccccc1)c1ccccc1` (some centres undefined), the TGI in the experiment with EKVX NSCLC, in the experiment on OVCAR-3 ovarian, with SF-539 CNS, in the experiment on MDA-N, with LOX IMVI melanoma and in the experiment on HCT-15 colon was greater than 100 µM each time. Also, the TGI with MCF7 breast, in the experiment with SNB-19 CNS and in the experiment on SK-MEL-5 melanoma was greater than 100 µM throughout.
Turning to `COc1c(NC(C)=O)c2ccccc2c2ccccc12`, the TGI in the experiment on EKVX NSCLC, in the experiment with OVCAR-3 ovarian, with SR leukemia, with MDA-N, in the experiment on LOX IMVI melanoma and in the experiment with HCT-15 colon was greater than 100 µM in each case. The TGI in the experiment on SNB-19 CNS and in the experiment on SK-MEL-5 melanoma was greater than 100 µM in each case.
For the molecule `C(=Nc1ccc(-c2nc3ccccc3s2)cc1)c1cccs1`, the TGI in the experiment on EKVX NSCLC, in the experiment with OVCAR-3 ovarian, with SR leukemia, in the experiment with SF-539 CNS, in the experiment on MDA-N and in the experiment on LOX IMVI melanoma was greater than 100 µM throughout. Further, the TGI with HCT-15 colon, in the experiment with SNB-19 CNS and with SK-MEL-5 melanoma was greater than 100 µM throughout.
As to `Cc1cc(NS(=O)(=O)c2ccc(Nc3c4ccccc4nc4c(C(=O)NC(CO)(CO)CO)cccc34)cc2)no1`, the TGI in the experiment on EKVX NSCLC was greater than 100 µM; in the experiment on OVCAR-3 ovarian, greater than 100 µM; in the experiment with SR leukemia, 91.4 µM; with MDA-N, greater than 100 µM; in the experiment with LOX IMVI melanoma, 43.1 µM; in the experiment with HCT-15 colon, greater than 100 µM. Also, the TGI in the experiment with MCF7 breast, in the experiment on SNB-19 CNS and with SK-MEL-5 melanoma was greater than 100 µM throughout.
As for `CC12CC(c3ccccc3O1)C(C(=O)Nc1nccs1)C(=O)N2` (centres undefined), the TGI was 90.7 µM in the experiment on EKVX NSCLC; greater than 100 µM in the experiment on OVCAR-3 ovarian; greater than 100 µM with MDA-N; greater than 100 µM with LOX IMVI melanoma; greater than 100 µM with HCT-15 colon; greater than 100 µM with MCF7 breast. Also, the TGI in the experiment with SNB-19 CNS and in the experiment on SK-MEL-5 melanoma was greater than 100 µM each time.
For the molecule `O=Cc1c2c(cc3c1CC1(C3)Cc3cc4c(c(C=O)c3C1)CCC4)CCC2`, the TGI was greater than 100 µM with EKVX NSCLC; greater than 100 µM in the experiment with OVCAR-3 ovarian; 73 µM in the experiment with SR leukemia; greater than 100 µM with SF-539 CNS; greater than 100 µM in the experiment with MDA-N; 51.1 µM in the experiment on LOX IMVI melanoma. Moreover, the TGI in the experiment with HCT-15 colon, in the experiment with MCF7 breast and in the experiment on SK-MEL-5 melanoma was greater than 100 µM in each case.
For `C=CCCCN(C(=O)c1ccccc1)c1ccc(C(=O)OC)o1`, the TGI with EKVX NSCLC, with SF-539 CNS, with MDA-N, in the experiment with LOX IMVI melanoma, in the experiment on HCT-15 colon and with MCF7 breast was greater than 100 µM throughout. The TGI in the experiment on SNB-19 CNS and in the experiment on SK-MEL-5 melanoma was greater than 100 µM throughout.
`O=C(CCC(NC(=O)OCc1ccccc1)C(=O)OCc1ccccc1)Nc1cccc(OCc2ccccc2)c1` (centres undefined): the TGI in the experiment on EKVX NSCLC is greater than 100 µM; in the experiment on OVCAR-3 ovarian, 45.4 µM; in the experiment on SR leukemia, 65.5 µM; in the experiment on SF-539 CNS it was 35 µM; with MDA-N, greater than 100 µM; in the experiment with LOX IMVI melanoma, 38.3 µM. Moreover, the figures for the TGI with HCT-15 colon, in the experiment with MCF7 breast and in the experiment with SNB-19 CNS were 38.8 µM, 41.3 µM and greater than 100 µM, respectively.
With `C#CC(O)/C=C/C(O)CCCC(O)CC#CC(O)C#CCCCCC(O)/C=C/CCCC(=O)CCCCCCCCCCCCCCCC(O)C(O)C#CC(=O)O` (centres undefined), the TGI in the experiment on EKVX NSCLC is greater than 25 µM; in the experiment with SR leukemia it was greater than 25 µM; in the experiment with MDA-N, greater than 25 µM; with LOX IMVI melanoma it was 10.4 µM; in the experiment on HCT-15 colon it was greater than 25 µM; with MCF7 breast, greater than 25 µM. The TGI in the experiment on SNB-19 CNS and in the experiment with SK-MEL-5 melanoma was greater than 25 µM in each case.
As to `COc1ccc(C2C3=C(COC3=O)Oc3cc4c(cc32)OCO4)cc1OC` (centres undefined), the TGI is greater than 38 µM in the experiment on EKVX NSCLC; 6.05 µM in the experiment with OVCAR-3 ovarian; 2.31 µM in the experiment with SF-539 CNS; 0.639 µM with MDA-N; greater than 100 µM in the experiment with LOX IMVI melanoma; greater than 100 µM with HCT-15 colon. The TGI with MCF7 breast, with SNB-19 CNS and with SK-MEL-5 melanoma was greater than 100 µM each time.
As to `CC(C)=CC(=O)OC1C2C(C)=CC(=O)C(O)C2(C)C2C3(O)OCC24C(CC(=O)OC14)C(C)C3O` (centres undefined), the TGI is 0.0226 µM and 0.0354 µM in the experiment on OVCAR-3 ovarian; 0.0132 µM and 0.0415 µM in the experiment on SF-539 CNS; 0.00481 µM in the experiment on MDA-N; 0.212 µM and 0.853 µM and 0.687 µM in the experiment on HCT-15 colon; 0.00664 µM in the experiment on MCF7 breast; 0.0303 µM and 0.0462 µM with SNB-19 CNS. The TGI in the experiment with SK-MEL-5 melanoma is 0.01 µM and 0.0209 µM. Besides, the GI50 in the experiment on SF-539 CNS is 0.02 µM; in the experiment with LOX IMVI melanoma, 0.0298 µM; with HCT-15 colon it was 0.0579 µM and 0.0541 µM; in the experiment on MCF7 breast it was 0.00159 µM; in the experiment on SNB-19 CNS it was 0.0273 µM; in the experiment with SK-MEL-5 melanoma, 0.02 µM.
As to `CCOC(=O)c1c(SC(=O)c2ccc(Cl)cc2)n(-c2ccccc2)c(=S)n(-c2ccccc2)c1=O`, the TGI in the experiment on EKVX NSCLC, with OVCAR-3 ovarian, with SR leukemia, with SF-539 CNS, in the experiment with MDA-N and in the experiment with LOX IMVI melanoma was greater than 100 µM each time. Besides, the TGI in the experiment on HCT-15 colon, in the experiment on MCF7 breast and with SNB-19 CNS was greater than 100 µM each time.
Regarding `O=C(NNC(=O)c1ccncc1)C(=O)Nc1cc(Cl)c(Cl)cc1Cl`, the TGI in the experiment on EKVX NSCLC, in the experiment on OVCAR-3 ovarian, in the experiment with SF-539 CNS, in the experiment with MDA-N, in the experiment with LOX IMVI melanoma and in the experiment with HCT-15 colon was greater than 100 µM each time. Further, the TGI in the experiment with MCF7 breast, in the experiment with SNB-19 CNS and in the experiment on SK-MEL-5 melanoma was greater than 100 µM throughout.
